Patent publication US10206394B2, “Herbicidal compounds” (Syngenta Participations AG, priority 2014, dated 2019)
Like-named read-outs stand apart in the source and are kept apart here.

How the values were obtained:
Assay in all cases: Glasshouse assay for herbicidal activity (pre- and post-emergence), percentage phytotoxicity
Format in all cases: in vivo
Avena fatua (AVEFA) = details: Avena fatua, rate 250 g/ha
Summary of the method: (§1)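 Visually rated damage, 0–100%. PRE spray 1 d after sowing, scored 20 DAA; POST spray ~12 d, scored 15 DAA. Glasshouse at 65% humidity, 16 h day.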

[1] = system: Alopecurus myosuroides (ALOMY); details: Alopecurus myosuroides, rate 250 g/ha
Summary of the method: as §1

Lolium perenne (LOLPE) = details: Lolium perenne, rate 250 g/ha
Summary of the method: as §1

[2] = system: Echinochloa crus-galli (ECHCG); details: Echinochloa crus-galli, rate 250 g/ha
Summary of the method: as §1

[3] = post-emergence, 360 h, POST-emergence, visual score 15 DAA (100%=total damage, 0%=no damage), read-out: Post-emergence herbicidal activity (percentage phytotoxicity) AVEFA POST
[4] = pre-emergence, 480 h, PRE-emergence, visual score 20 DAA (100%=total damage, 0%=no damage), read-out: Pre-emergence herbicidal activity (percentage phytotoxicity) AVEFA PRE
[5] = post-emergence, 360 h, POST-emergence, visual score 15 DAA (100%=total damage, 0%=no damage), read-out: Post-emergence herbicidal activity (percentage phytotoxicity) ALOMY POST
[6] = pre-emergence, 480 h, PRE-emergence, visual score 20 DAA (100%=total damage, 0%=no damage), read-out: Pre-emergence herbicidal activity (percentage phytotoxicity) ALOMY PRE
[7] = post-emergence, 360 h, POST-emergence, visual score 15 DAA (100%=total damage, 0%=no damage), read-out: Post-emergence herbicidal activity (percentage phytotoxicity) LOLPE POST
[8] = pre-emergence, 480 h, PRE-emergence, visual score 20 DAA (100%=total damage, 0%=no damage), read-out: Pre-emergence herbicidal activity (percentage phytotoxicity) LOLPE PRE
[9] = post-emergence, 360 h, POST-emergence, visual score 15 DAA (100%=total damage, 0%=no damage), read-out: Post-emergence herbicidal activity (percentage phytotoxicity) ECHCG POST
[10] = pre-emergence, 480 h, PRE-emergence, visual score 20 DAA (100%=total damage, 0%=no damage), read-out: Pre-emergence herbicidal activity (percentage phytotoxicity) ECHCG PRE

Compound | pest or weed control at 250 g/ha (Avena fatua (AVEFA); [3]) [%] | pest or weed control at 250 g/ha (Avena fatua (AVEFA); [4]) [%] | pest or weed control at 250 g/ha [1, 5] [%] | pest or weed control at 250 g/ha [1, 6] [%] | pest or weed control at 250 g/ha (Lolium perenne (LOLPE); [7]) [%] | pest or weed control at 250 g/ha (Lolium perenne (LOLPE); [8]) [%] | pest or weed control at 250 g/ha [2, 9] [%] | pest or weed control at 250 g/ha [2, 10] [%]
C#CCN(C)C(=O)CC1CC(=O)C(c2c(C)cc(C)cc2CC)C1=O (centres unmarked) [Compound B260] | 100 | 80 | 100 | 90 | 100 | 100 | 100 | 100
CCc1cc(OCC(F)(F)F)cc(C)c1C1C(=O)CC(CC(=O)NCc2cccc(Cl)c2)C1=O (centres unmarked) [Compound B261] | 100 | 80 | 100 | 80 | 100 | 90 | 100 | 90
Cc1cc(-n2cc(Cl)cn2)cc(C)c1C1C(=O)CC(CC(=O)NCc2cccc(Cl)c2)C1=O (centres unmarked) [Compound B262] | 90 | 40 | 70 | 60 | 70 | 60 | 100 | 80
Cc1cc(-c2ncc(F)cn2)cc(C)c1C1C(=O)CC(CC(=O)NCc2ccccc2)C1=O (centres unmarked) [Compound B263] | 100 | 80 | 100 | 90 | 100 | 80 | 100 | 100
Cc1cc(-c2ncc(F)cn2)cc(C)c1C1C(=O)CC(CC(=O)NCc2cccc(F)c2)C1=O (centres unmarked) [Compound B264] | 100 | 80 | 100 | 100 | 100 | 90 | 100 | 100
Cc1cc(-c2ncc(F)cc2F)cc(C)c1C1C(=O)CC(CC(=O)N(C)C)C1=O (centres unmarked) [Compound B265] | 100 | 100 | 100 | 100 | 100 | 100 | 100 | 100
COCCN(CCOC)C(=O)CC1CC(=O)C(c2c(C)cc(-c3ncc(F)cc3F)cc2C)C1=O (centres unmarked) [Compound B266] | 100 | 40 | 100 | 100 | 80 | 90 | 100 | 100
Cc1cc(-c2ncc(F)cc2F)cc(C)c1C1C(=O)CC(CC(=O)N(C)C(C)(C)C)C1=O (centres unmarked) [Compound B267] | 100 | 80 | 100 | 100 | 100 | 100 | 100 | 100
Cc1cc(-c2ncc(Br)cn2)cc(C)c1C1C(=O)CC(CC(=O)NC(C)(C)C)C1=O (centres unmarked) [Compound B268] | 100 | 90 | 90 | 100 | 100 | 100 | 100 | 100
CNC(=O)CC1CC(=O)C(c2c(C)cc(-c3ncc(F)cc3F)cc2C)C1=O (centres unmarked) [Compound B269] | 100 | 100 | 100 | 100 | 100 | 100 | 100 | 100
